The values that follow come from ChEMBL document CHEMBL5257116, “Design, synthesis, and biological evaluation of acyl sulfonamide derivatives with spiro cycles as NaV1.7 inhibitors for antinociception” (Bioorg Med Chem, 2023).

Structures are written as SMILES. Calls of active or inactive are those of the source. No cut-off for these calls is given here.

In data set [1] the target is T1, Sodium channel protein type 9 subunit alpha (Homo sapiens, UniProt Q15858). The experiment in a line: Inhibition of human Nav1.7 expressed in HEK293 cells at 10 uM measured for 48 hrs by whole-cell patch clamp electrophysiology assay. It is filed as cell-based.
Target sequence in this assay (Q15858 whole entry, looked up): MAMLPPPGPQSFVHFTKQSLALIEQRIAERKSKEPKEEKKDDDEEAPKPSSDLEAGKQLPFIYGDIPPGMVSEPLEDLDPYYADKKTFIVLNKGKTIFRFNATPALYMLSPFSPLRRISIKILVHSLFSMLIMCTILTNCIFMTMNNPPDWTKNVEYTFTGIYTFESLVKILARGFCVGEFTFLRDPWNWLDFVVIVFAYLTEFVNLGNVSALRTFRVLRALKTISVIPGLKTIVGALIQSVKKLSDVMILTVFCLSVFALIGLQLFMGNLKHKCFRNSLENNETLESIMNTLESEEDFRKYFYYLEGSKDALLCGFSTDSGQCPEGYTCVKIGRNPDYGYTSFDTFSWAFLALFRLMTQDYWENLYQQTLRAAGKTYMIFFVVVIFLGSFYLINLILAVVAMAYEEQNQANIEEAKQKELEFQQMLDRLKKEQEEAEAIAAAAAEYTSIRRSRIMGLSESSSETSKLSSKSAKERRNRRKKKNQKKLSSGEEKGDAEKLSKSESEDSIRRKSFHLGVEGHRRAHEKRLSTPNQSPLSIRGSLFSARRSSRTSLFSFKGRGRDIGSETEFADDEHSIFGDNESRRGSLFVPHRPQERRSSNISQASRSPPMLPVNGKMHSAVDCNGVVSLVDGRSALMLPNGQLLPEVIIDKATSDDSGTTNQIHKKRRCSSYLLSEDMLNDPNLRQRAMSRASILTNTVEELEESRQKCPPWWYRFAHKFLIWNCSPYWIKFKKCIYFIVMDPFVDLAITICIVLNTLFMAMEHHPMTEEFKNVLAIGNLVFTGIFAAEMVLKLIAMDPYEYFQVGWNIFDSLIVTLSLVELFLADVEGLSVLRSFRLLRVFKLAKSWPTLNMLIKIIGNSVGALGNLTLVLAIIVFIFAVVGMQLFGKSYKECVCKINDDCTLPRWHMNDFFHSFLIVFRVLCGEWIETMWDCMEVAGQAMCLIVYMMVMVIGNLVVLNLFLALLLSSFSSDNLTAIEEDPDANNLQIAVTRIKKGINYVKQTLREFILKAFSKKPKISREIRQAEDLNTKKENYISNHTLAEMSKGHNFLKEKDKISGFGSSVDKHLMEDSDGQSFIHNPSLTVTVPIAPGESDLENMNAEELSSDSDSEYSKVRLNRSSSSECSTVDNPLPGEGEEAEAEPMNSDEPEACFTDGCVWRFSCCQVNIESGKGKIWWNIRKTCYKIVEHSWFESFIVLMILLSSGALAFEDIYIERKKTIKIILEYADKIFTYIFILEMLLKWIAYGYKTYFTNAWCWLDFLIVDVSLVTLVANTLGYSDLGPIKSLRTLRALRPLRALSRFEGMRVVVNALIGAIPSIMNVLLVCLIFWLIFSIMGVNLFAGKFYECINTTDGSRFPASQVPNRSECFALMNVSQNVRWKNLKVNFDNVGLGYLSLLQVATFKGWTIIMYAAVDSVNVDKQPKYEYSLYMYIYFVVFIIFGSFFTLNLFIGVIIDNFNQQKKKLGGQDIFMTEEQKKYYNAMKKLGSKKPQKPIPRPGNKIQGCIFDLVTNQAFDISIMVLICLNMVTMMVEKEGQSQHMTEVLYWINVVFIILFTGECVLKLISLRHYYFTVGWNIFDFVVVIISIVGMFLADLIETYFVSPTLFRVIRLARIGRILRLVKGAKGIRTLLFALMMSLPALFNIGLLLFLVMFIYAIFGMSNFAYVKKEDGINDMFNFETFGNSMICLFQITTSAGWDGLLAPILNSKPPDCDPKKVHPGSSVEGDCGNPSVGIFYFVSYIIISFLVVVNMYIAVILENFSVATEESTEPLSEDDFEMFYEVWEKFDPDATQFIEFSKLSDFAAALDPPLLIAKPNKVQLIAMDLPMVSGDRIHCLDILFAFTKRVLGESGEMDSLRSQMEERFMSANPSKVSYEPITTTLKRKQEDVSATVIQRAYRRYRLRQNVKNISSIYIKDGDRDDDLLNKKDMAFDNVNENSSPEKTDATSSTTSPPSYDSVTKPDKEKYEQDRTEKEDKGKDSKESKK
In data set [2] the target is Sodium channel protein type 4 subunit alpha (Homo sapiens, UniProt P35499). The experiment in a line: Inhibition of Nav1.4 (unknown origin) by whole-cell patch clamp assay.
Data set [3] deals with T1, Sodium channel protein type 9 subunit alpha. The experiment in a line: Inhibition of Nav1.7 (unknown origin) by whole-cell patch clamp assay. For orientation: In patch-clamp work, channel activity is measured electrically.
Target sequence in this assay (Q15858 whole entry): as the sequence (Q15858 whole entry, looked up) above
Data set [4] has as its target Sodium channel protein type 5 subunit alpha (Homo sapiens, UniProt Q14524). The experiment in a line: Inhibition of Nav1.5 (unknown origin) by whole-cell patch clamp assay.
The species entered for the next data set is Homo sapiens. Nature of the data set: Selectivity ratio of IC50 for inhibition of Nav1.7 (unknown origin) to IC50 for inhibition of Nav1.4 (unknown origin).
Data set [5] deals with Mus musculus. Nature of the data set: Antinociceptive activity in Kunming mouse at 20 mg/kg,ip measured for 1 to 4 hrs after administration by hot plate test. The following applies: time 1-4 hrs. It is filed as functional, organism-based. Background: Thermal pain tests record how soon the animal reacts.
The target in data set [6] is T1, Sodium channel protein type 9 subunit alpha. Nature of the data set: Inhibition of human Nav1.7 expressed in HEK293 cells at 1 uM measured for 48 hrs by whole-cell patch clamp electrophysiology assay. The class given is cell-based.
Target sequence in this assay (Q15858 whole entry, looked up): as above
A short description of data set [7]: Sedative activity in Kunming mouse assessed as effect on spontaneous locomotor activity at 20 mg/kg,ip administrated for 2 hrs and measured for 30 mins by open field test. The class given is toxicity, organism-based. The conditions noted are these: in vivo, 2.5 h.
Data set [8] concerns Mus musculus. The experiment in a line: Antinociceptive activity in Kunming mouse assessed as inhibition of acetic acid-induced abdominal constrictions at 10 to 40 mg/kg,ip pre-administrated for 2 hrs followed by acetic acid induction and measured for 15 mins by writhing test. It is filed as functional, organism-based. The conditions noted are these: dose 10-40 mg/kg, time 135.0 min. In general terms: An intraperitoneal irritant provokes the stretching counted in writhing tests.

The subject of data set [9] is Mus musculus. The experiment in a line: Antinociceptive activity in Kunming mouse at 40 mg/kg,ip measured for 1 to 4 hrs after administration by hot plate test. The class given is functional, organism-based. The conditions noted are these: time 1-4 hrs.
Data set [10] deals with Mus musculus. Nature of the data set: Antinociceptive activity in Kunming mouse at 10 mg/kg,ip measured for 1 to 4 hrs after administration by hot plate test. The class given is functional, organism-based. The conditions noted are these: time 1-4 hrs.

Sequence of Sodium channel protein type 5 subunit alpha (Q14524 whole entry): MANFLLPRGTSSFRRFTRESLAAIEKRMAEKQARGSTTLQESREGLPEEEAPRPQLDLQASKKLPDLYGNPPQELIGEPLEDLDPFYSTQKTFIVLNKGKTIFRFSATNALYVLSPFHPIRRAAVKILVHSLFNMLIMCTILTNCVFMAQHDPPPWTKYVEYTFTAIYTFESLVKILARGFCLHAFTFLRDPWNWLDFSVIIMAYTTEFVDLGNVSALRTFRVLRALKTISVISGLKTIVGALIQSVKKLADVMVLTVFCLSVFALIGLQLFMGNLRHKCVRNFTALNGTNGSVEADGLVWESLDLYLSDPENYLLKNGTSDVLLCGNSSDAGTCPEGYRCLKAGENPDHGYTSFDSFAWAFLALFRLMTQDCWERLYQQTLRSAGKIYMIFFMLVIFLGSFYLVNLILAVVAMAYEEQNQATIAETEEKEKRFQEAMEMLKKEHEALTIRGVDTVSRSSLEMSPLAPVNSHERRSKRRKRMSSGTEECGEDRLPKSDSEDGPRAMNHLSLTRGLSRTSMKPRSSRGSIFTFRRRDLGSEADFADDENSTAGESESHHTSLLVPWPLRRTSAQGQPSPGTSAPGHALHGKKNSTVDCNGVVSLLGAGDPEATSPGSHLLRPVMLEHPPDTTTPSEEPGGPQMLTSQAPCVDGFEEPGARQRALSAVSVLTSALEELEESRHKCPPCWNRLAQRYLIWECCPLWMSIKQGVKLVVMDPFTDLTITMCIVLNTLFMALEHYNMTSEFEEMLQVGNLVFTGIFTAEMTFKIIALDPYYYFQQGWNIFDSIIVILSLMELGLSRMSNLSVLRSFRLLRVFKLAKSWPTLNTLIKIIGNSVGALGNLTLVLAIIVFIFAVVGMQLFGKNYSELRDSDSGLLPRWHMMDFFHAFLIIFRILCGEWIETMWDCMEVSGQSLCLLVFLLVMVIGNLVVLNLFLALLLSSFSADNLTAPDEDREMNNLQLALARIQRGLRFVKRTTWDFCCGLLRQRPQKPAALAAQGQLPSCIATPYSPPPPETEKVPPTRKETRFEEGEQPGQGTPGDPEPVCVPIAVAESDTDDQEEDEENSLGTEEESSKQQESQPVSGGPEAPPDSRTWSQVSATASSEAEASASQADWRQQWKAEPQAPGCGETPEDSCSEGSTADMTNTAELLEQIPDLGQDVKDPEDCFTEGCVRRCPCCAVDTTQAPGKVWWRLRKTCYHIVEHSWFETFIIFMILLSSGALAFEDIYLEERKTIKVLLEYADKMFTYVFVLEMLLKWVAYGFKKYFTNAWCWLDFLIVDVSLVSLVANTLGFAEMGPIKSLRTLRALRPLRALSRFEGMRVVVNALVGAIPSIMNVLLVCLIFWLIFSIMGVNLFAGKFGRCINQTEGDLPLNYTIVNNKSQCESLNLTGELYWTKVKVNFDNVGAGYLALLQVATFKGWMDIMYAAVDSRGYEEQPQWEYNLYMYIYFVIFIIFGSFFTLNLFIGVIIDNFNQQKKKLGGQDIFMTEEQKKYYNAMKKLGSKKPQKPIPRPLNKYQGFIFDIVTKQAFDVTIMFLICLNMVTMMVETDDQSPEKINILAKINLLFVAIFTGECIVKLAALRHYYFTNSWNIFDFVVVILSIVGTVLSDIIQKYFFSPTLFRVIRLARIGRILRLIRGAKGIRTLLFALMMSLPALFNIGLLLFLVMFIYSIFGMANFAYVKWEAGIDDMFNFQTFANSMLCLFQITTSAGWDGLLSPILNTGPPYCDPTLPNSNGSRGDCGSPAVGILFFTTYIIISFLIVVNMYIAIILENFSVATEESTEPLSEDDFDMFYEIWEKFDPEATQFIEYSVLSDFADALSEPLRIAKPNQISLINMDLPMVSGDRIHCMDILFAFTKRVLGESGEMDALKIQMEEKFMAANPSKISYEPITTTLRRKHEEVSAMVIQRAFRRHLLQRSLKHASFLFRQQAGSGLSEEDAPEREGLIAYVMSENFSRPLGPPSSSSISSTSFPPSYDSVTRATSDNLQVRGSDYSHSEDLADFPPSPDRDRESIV

In general, inhibition refers to the relative decrease from the control value, in per cent. As for `O=C(NS(=O)(=O)C1CC1)c1ccc(OCCC2CCC3(CCN(Cc4ccccc4)CC3)C2)cc1` (stereo not given), in data set [1], the inhibition was 92%. The IC50 is the concentration that gives 50% inhibition. A higher IC50 goes with a need for much substance. Consider `O=C(NS(=O)(=O)C1CC1)c1cc(Cl)c(OCCC2(F)CCN(Cc3cc(Cl)cc(Cl)c3)CC2)cc1F`, for which the IC50 amounted to 2700 nM in data set [2], 1010 nM in data set [3] and 58900 nM in data set [4]. Also, the Ratio IC50 in the data set filed under Homo sapiens was 3. The inhibition in data set [1] amounted to 89.6%. Regarding `CCN1CCC2(CCC(CCOc3cc(F)c(C(=O)NS(=O)(=O)C4CC4)cc3Cl)C2)CC1` (stereo not given), in [1], the inhibition was 24.3%. Take `C[C@H](NCc1ccc(OCc2ccccc2F)cc1)C(N)=O` [RALFINAMIDE]: in the data set with Mus musculus [5], the outcome was Active. Besides, inhibition in data set [3] was half-maximal at 35200 nM (IC50). For the same compound, the inhibition in data set [6] was 12.5%; in data set [1], 30.9%. For `O=C(NS(=O)(=O)C1CC1)c1ccc(OCC2CCC3(CCNCC3)C2)cc1` (stereo not given), the inhibition in data set [1] came out at 0.2%. With `O=C(NS(=O)(=O)C1CC1)c1cc(Cl)c(OCCC2CCC3(CCN(Cc4cccc5ccccc45)CC3)C2)cc1F` (stereo not given), the inhibition was determined as 33.5% in data set [6] and 97.1% in data set [1]. Regarding `CCN1CCC2(CCC(COc3ccc(C(=O)NS(=O)(=O)C4CC4)cc3)C2)CC1` (stereo not given), the inhibition in data set [1] is 1.4%.

Consider `O=C(NS(=O)(=O)C1CC1)c1ccc(OCC2CCC3(CCN(Cc4ccccc4)CC3)C2)cc1` (stereo not given), for which the inhibition in data set [1] is 57.4%.

As to `CCc1ccc(CN2CCC3(CCC(CCOc4cc(F)c(C(=O)NS(=O)(=O)C5CC5)cc4Cl)C3)CC2)cc1` (stereo not given), the inhibition in [6] stood at 29.4%; in data set [1], 93.9%. The like results for `O=C(NS(=O)(=O)C1CC1)c1cc(Cl)c(OCCC2CCC3(CCN(CCCc4ccccc4)CC3)C2)cc1F` (stereo not given) were, in that order, 21.2% and 72.8%.

On to `O=C(NS(=O)(=O)C1CC1)c1ccc(OC2CC3(CCNCC3)C2)cc1`, for which, in data set [1], the inhibition was 15.4%. As to `CCN1CCC2(CCC(Oc3ccc(C(=O)NS(=O)(=O)C4CC4)cc3)CC2)CC1`, the inhibition in data set [1] came to 22.9%. As to `O=C(NS(=O)(=O)C1CC1)c1cc(C2CC2)c(OCCC2CCC3(CCN(Cc4ccccc4)CC3)C2)cc1F` (stereo not given), in data set [1], the inhibition is 96.5%. `O=C(NS(=O)(=O)C1CC1)c1ccc(OC2CCC3(CCNCC3)C2)cc1` (stereo not given): the inhibition in data set [1] was found to be 71.4%. `O=C(NS(=O)(=O)C1CC1)c1cc(Cl)c(OCCC2CCC3(CCN(Cc4ccc(Cl)cc4)CC3)C2)cc1F` (stereo not given): the figures for the inhibition in [6] and in [1] were 23.8% and 87.2%, respectively. With `O=C(NS(=O)(=O)C1CC1)c1cc(Cl)c(OCCC2CCC3(CCN(Cc4ccsc4)CC3)C2)cc1F` (stereo not given), the results for the IC50 in data set [3] and in data set [4] were 840 nM and 54700 nM, respectively. Besides, the inhibition is 61.4% in [6] and 95.9% in data set [1]. Take `O=C(NS(=O)(=O)C1CC1)c1ccc(OC2CCC3(CCNCC3)CC2)cc1`: the inhibition in data set [1] came out at 11.2%. As to `O=C(NS(=O)(=O)C1CC1)c1cc(Cl)c(OCCC2CCC3(CCN(Cc4ccco4)CC3)C2)cc1F` (stereo not given), the midpoint of inhibition in [3], the IC50, lay at 610 nM. In addition, the inhibition in data set [6] amounted to 60%; in [1], 97.6%. In the case of `O=C(NS(=O)(=O)C1CC1)c1cc(F)c(OCCC2CCC3(CCN(Cc4ccccc4)CC3)C2)cc1F` (stereo not given), the midpoint of inhibition in [3], the IC50, lay at 1150 nM. Moreover, in [1], the inhibition was 99.7%.

Turning to `O=C(NS(=O)(=O)C1CC1)c1ccc(OC2CCC3(CCN(Cc4ccccc4)CC3)C2)cc1` (stereo not given), in [1], the inhibition worked out at 45.7%. Regarding `O=C(NS(=O)(=O)C1CC1)c1cc(Cl)c(OCCC2CCC3(CCN(CCc4ccccc4)CC3)C2)cc1F` (stereo not given), the inhibition is 27.5% in [6] and 75.1% in data set [1]. The like results for `COc1ccc(CN2CCC3(CCC(CCOc4cc(F)c(C(=O)NS(=O)(=O)C5CC5)cc4Cl)C3)CC2)cc1` (stereo not given) were, in that order, 31.1% and 89.3%. Consider `O=C(NS(=O)(=O)C1CC1)c1cc(Cl)c(OCCC2CCC3(CCN(CC4CCCCC4)CC3)C2)cc1F` (stereo not given), for which the values for the inhibition in [6] and in data set [1] were 20.1% and 65.5%, respectively. For the compound `Cc1cc(C(=O)NS(=O)(=O)C2CC2)c(F)cc1OCCC1CCC2(CCN(Cc3ccccc3)CC2)C1` (stereo not given), 1040 nM corresponded to half-maximal inhibition in [3] (IC50). In addition, the inhibition in data set [1] was 101%. For `O=C(NS(=O)(=O)C1CC1)c1cc(Cl)c(OCCC2CCC3(CCN(Cc4ccccc4)CC3)C2)cc1F` (stereo not given), the result in the data set with Mus musculus [5] was Active. Also, the Activity result in data set [7] is “Non-Toxic”; in the data set with Mus musculus [8], “Dose-Dependent Effect”. Further, the IC50 came to 4880 nM in [2], 460 nM in data set [3] and 46200 nM in [4]. Further, the Ratio IC50 in the data set listed under Homo sapiens was determined as 10. Further, the inhibition in data set [6] is 70.8%; in data set [1] it was 102%. Also, the result in the data set on Mus musculus [9] and with Mus musculus [10] was inactive. Regarding `O=C(NS(=O)(=O)C1CC1)c1ccc(OC2CCC3(CC2)CCN(Cc2ccccc2)CC3)cc1`, the inhibition in data set [1] is 13.7%. Still for that read-out and setting: next, `O=C(NS(=O)(=O)C1CC1)c1ccc(OCCC2CCC3(CCNCC3)C2)cc1` (stereo not given): 8.4%; `CCN1CCC2(CCC(Oc3ccc(C(=O)NS(=O)(=O)C4CC4)cc3)C2)CC1` (stereo not given): 16.8%. For the compound `CCN1CCC2(CCC(CCOc3ccc(C(=O)NS(=O)(=O)C4CC4)cc3)C2)CC1` (stereo not given), the inhibition in [1] was 24.2%. Same read-out and setting: next, `O=C(NS(=O)(=O)C1CC1)c1ccc(OC2CC3(CCN(Cc4ccccc4)CC3)C2)cc1`: 21.5%; `O=C(NS(=O)(=O)C1CC1)c1cc(Cl)c(OCCC2CCC3(CCN(Cc4cc(Cl)cc(Cl)c4)CC3)C2)cc1F` (stereo not given): 77.2%. Turning to `O=C(NS(=O)(=O)C1CC1)c1cc(Cl)c(OCCC2CCC3(CCN(Cc4cccc(C(F)(F)F)c4)CC3)C2)cc1F` (stereo not given), the inhibition is 16.1% in data set [6] and 55.9% in data set [1]. With `CCN1CCC2(CC1)CC(Oc1ccc(C(=O)NS(=O)(=O)C3CC3)cc1)C2`, the inhibition in [1] was 14.3%.
